Test results taken from ChEMBL document CHEMBL2390944, “Discovery and optimization of arylsulfonyl 3-(pyridin-2-yloxy)anilines as novel GPR119 agonists” (Bioorg Med Chem Lett, 2013).

How the values were obtained:
[1] = Metabolic stability in mouse liver microsomes assessed as compound turnover after 30 mins; type: ADME, Microsome; settings: read-out: Drug metabolism
in vitro = settings: human, liver microsomes
in vivo = settings: rat, iv, 0.5 mg/kg

| metabolised at 0.5 h [1] | Compound | metabolised at 0.5 h (in vitro) | clearance (in vivo) |
| --- | --- | --- | --- |
| 100% | Cc1ccc(S(=O)(=O)Nc2cccc(Oc3nc(C)cc(C)c3C#N)c2)cc1 | 72% | – |
| – | N#Cc1c(C(F)(F)F)cc(C2CC2)nc1Oc1cccc(NS(=O)(=O)c2ccc(Cl)cc2)c1 | 13% | 3.17 mL/min/kg |
